SMILES strings stand for the structures. Read-outs that look alike come from different tables or passages of the source.

Data set [1] addresses T1, PPP1R15A-PP1 complex (Homo sapiens, UniProt O75807).
T1 construct: cDNAs encoding amino acids 325-636 of PPP1R15A and 340-698 of PPP1R15B were His-tagged and cloned into pMAL-c5x; made in house; host or cells: R15A: E. coli BL21-Gold (pMAL-c5x); PP1γ: Sf9 insect cells (baculovirus, pDW464)
Briefly: SPR steady-state binding to R15A-PP1 holophosphatase. The procedure:
PPP1R15A^325-636 and PPP1R15B^340-698 were expressed and purified as follows: the cDNAs encoding amino acids 325-636 of PPP1R15A and 340-698 of PPP1R15B were His-tagged and cloned into pMAL-c5x. Recombinant PPP1R15A/B were expressed in BL21-Gold cells and purified by affinity chromatography on a HisTrap HP column (GE Healthcare), followed by a MBPTrap HP column (GE Healthcare). The proteins were analyzed on BOLT SDS-PAGE 4-12% Bis-Tris gels (Life Technologies) stained with SimplyBlue SafeStain (Life Technologies). cDNA encoding for human PP1γ was cloned into the baculovirus transfer vector pDW464 to add a biotin acceptor peptide (BAP). The vector also encodes for the E. coli biotin holoenzyme synthetase (BirA), so that BAP-tagged proteins can be biotinylated in vivo in Spodoptere frugiperda (Sf9) insect cells (Duffy et al., Anal. Biochem., 262, 122-128, 1998). The Bac-to-Bac baculovirus expression system (Life Technologies) was used to generate the recombinant bacmid DNA and Sf9 insect cells were used to amplify the viral stocks Cultures were harvested by centrifuging at 1,200 g for 15 minutes, cell pellets were resuspended in lysis buffer (50 mM Tris pH 7.4, 150 mM NaCl, 0.2% Triton, 5% Glycerol, 1 PiC tablet (Roche) per 50 ml and 0.2 mM PMSF) and followed by gentle sonication. The protein was first purified on a 5 ml HiTrap Q HP column (GE Healthcare) followed by a HiLoad 16/600 Superdex 200 column (GE Healthcare). The positive fractions confirmed by SDS-PAGE and western blot were pooled, concentrate to ˜1 μM and stored at −80° C.
A Biacore T200 (GE Healthcare) system was used for all experiments and biotinylated PP1 was captured using a Sensor Chip SA (GE Healthcare, catalog no BR-1005-31). The streptavidin coated surface was activated by 1 min injection with a solution of 50 mM NaOH and 1 M NaCl. Biotin-PP1 was diluted in the running buffer (50 mM Tris pH 7.5, 100 mM NaCl, 0.1 mM EGTA, 1 mM MnCl2, 0.05% Tween 20) and injected at approximately 300 nM concentration directly to streptavidin coated surface for 100 sec or to reach immobilization level of biotin-PP1 corresponding to ˜7000 RU. A blank immobilization was performed for one of the SA sensor chip surface to use as a reference.
With minor deviations, the same procedure and conditions were used in all binding experiments. Small molecules were stored as 50 mM stock solutions in 100% DMSO. Prior to determining binding constants, serial dilutions of either 12 or 8 concentrations of the compounds were prepared in the running buffer in a 96-well plate. Prior to each compound dilution series the regulatory subunit, R15A or R15B, was diluted to […] in the running buffer and captured on the biotin-PP1 surface, to form the holophosphatase complex on the sensor chip surface. Then, without regenerating the surface, the compound dilution series was injected onto the surface of the chip Sensorgrams were analyzed using the Biacore T200 evaluation software and the binding constants determined based on a steady-state model. Kinetic experiments are carried out using different concentrations of the compound and their respective equilibrium binding levels determined.
Surface Plasmon Resonance (SPR) was used to measure the binding affinity of compounds to the PPP1R15A/B-PP1 phosphatase complex. Biotin acceptor peptide (BAP) was fused to the N-terminus of PP1γ, which enables the biotinylation of the BAP-tagged protein in Sf9 insect cells. After purification the BAP-PP1γ protein was captured on a streptavidin sensor chip (SA-chip, GE healthcare) to a response level of ˜5.000 RU. Using controlled biotinylation enables orientated and uniform immobilization on the sensor chip surface. The PP1γ was then used to capture PPP1R15A/B and form a holophosphatase complex on the surface of the streptavidin chip. This complex can then be used to test binding of compounds. 10 μM PPP1R15A/B protein concentration was used to form the holophosphatase complex during a 80 s injection. […]

Data set [2] addresses T2, PP1 (Homo sapiens, UniProt P36873).
T2 construct: made in house; host or cells: Sf9 insect cells (baculovirus, pDW464)
In words: SPR binding to PP1 alone. As to conditions: SPR steady-state, bio-PP1c surface.

Data set [3] relates to HeLa cells. Briefly: Cytoprotection against ER stress (tunicamycin), IncuCyte. The data set is classed as cell-based. As to conditions: Homo sapiens, 250 ng/ml Tunicamycin, 72 hours, compound 0-20 μM, read-out: Cytoprotection from Tm (compared to GNB). The procedure: (§1) HeLa cells (40,000 cells/ml) were plated in a 96-well plate and treated with different concentrations (0-20 μM) of a compound as indicated in the presence of 250 ng/ml Tunicamycin for 72 hours. To monitor cell death 1/2000 dilution of the CellTox green dye (Promega) was added to the media. The growth of the cells was monitored over time and pictures taken every 2 hours with the IncuCyte ZOOM system and analysed by the IncuCyte ZOOM software (Essen BioScience). […] Cytoprotection against ER stress can be measured by a suitable assay. In this instance, cytoprotection was measured in HeLa cells in which ER stress was elicited by the addition of media containing tunicamycin, a drug that blocks N-glycosylation, thereby preventing protein folding and inducing the unfolded protein response. Cell viability was then detected in the presence and absence of a compound listed in Table 1 after a set period of time, by monitoring cell growth over time. Cytoprotection from ER stress was measured in terms of the percentage increase in viable cells (relative to control) after ER stress.

For data set [4], the system named is HeLa cells. In words: Cell death dose response (CellTox green, IncuCyte). The conditions noted are these: for EC50: Homo sapiens, area under % cell death vs time curve against log conc, read-out: Effect on cell death ⇒ EC50; for Effect on cell death: IncuCyte, 0-20 μM. The data set is classed as cell-based. Here is the method: Toxicity of the compounds is assessed using Cell viability Counting Kit-8 (Dojindo) or in a Incucyte (Essenbioscience) using both phase contrast and IncuCyte™ Cytotox Green Reagent.
as §1
EC50 were extrapolated from dose response experiments on cell death. Data from IncuCyte was plotted and analysed in Prism. The “% of cell death” for each data point. For each concentration there is a % of cell death vs time, the area under the curve was taken and plotted against log conc=>EC50 (analysis in Prism).

Setting [5] is: SPR steady-state, MBP-R15A325-636-His captured on bio-PP1c, 10° C., read-out: R15A (KD).

T2 sequence (P36873 whole entry): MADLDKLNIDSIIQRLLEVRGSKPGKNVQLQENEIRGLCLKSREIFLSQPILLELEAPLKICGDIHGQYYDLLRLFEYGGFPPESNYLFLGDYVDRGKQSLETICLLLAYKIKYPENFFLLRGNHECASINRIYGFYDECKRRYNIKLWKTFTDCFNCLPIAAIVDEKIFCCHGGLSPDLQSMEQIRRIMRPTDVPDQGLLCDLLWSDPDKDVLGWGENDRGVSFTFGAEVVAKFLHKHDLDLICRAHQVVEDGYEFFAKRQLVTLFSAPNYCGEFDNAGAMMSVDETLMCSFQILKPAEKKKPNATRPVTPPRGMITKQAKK
T1 sequence (O75807 325-636): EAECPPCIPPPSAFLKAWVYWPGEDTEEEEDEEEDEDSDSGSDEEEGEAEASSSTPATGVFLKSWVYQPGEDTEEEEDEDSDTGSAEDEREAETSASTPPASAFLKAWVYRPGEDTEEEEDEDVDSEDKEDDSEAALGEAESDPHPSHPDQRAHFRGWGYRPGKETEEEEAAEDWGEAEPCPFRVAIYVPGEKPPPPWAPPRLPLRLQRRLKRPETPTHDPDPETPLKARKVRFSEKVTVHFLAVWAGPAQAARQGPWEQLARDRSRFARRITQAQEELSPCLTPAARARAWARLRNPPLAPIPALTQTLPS
T1 sequence (P36873 whole entry partner, the tested form may be a part): as the sequence (P36873 whole entry) above

As for `[H]/N=C(\N)NN=Cc1ccc(Cl)cc1` [Compound 1, (E)-2-((4-chlorophenyl)methylene)hydrazine-1-carboximidamide], the Kd in data set [1] (setting [5]) was determined as 8.32 ± 0.14 µM; in data set [2], 6.28 µM. Also, the Emax in data set [3] came to 0%. For the same compound, in data set [4], the EC50 is 4.9 µM. Besides, in data set [4], the “Effect on cell death” value is “Yes”.
For `N=C(N)N/N=C/c1cc(Cl)c(Cl)c(Cl)c1` [Compound 3, (E)-2-(3,4,5-trichlorobenzylidene)hydrazine-1-carboximidamide], in data set [1] (setting [5]), the Kd was found to be 4.49 ± 1.47 µM. This compound displayed a Kd in data set [2] of 10.3 µM. Also, in data set [3], the Emax came to 52%. In data set [4], the EC50 is 9.17 µM and the “Effect on cell death” value was “Yes”.
Turning to `[H]/N=C(\N)NN=Cc1cc(Cl)c(F)c(Cl)c1` [Compound 5, (E)-2-(3,5-dichloro-4-fluorobenzylidene)hydrazine-1-carboximidamide], in data set [1] (setting [5]), the Kd came out at 8.45 ± 0.41 µM. Also, the Kd in data set [2] was 30.6 µM. The Emax in data set [3] amounted to 48%. Moreover, in data set [4], the EC50 worked out at 9.46 µM and the “Effect on cell death” value is on record as “Yes”.
For `[H]/N=C(\N)NN=Cc1ccc(Cl)c(Cl)c1Cl` [Compound 6, (E)-2-(2,3,4-trichlorobenzylidene)hydrazine-1-carboximidamide], the Kd in data set [1] (setting [5]) was 5.43 ± 1.1 µM. For the same compound, the Emax in data set [3] came to 61%. In addition, in data set [4], the EC50 was 9.65 µM and the “Effect on cell death” value is on record as “Yes”.
As for `[H]/N=C(\N)NN=Cc1cc(F)c(Cl)cc1Cl` [Compound 7, (E)-2-(2,4-dichloro-5-fluorobenzylidene)hydrazine-1-carboximidamide], the Kd was found to be 10.2 ± 2.57 µM in data set [1] (setting [5]) and 13 µM in data set [2]. In addition, the Emax in data set [3] came out at 46%. Besides, the EC50 in data set [4] came out at 11.5 µM. The “Effect on cell death” value in data set [4] is given as “Yes”.
Consider `[H]/N=C(\N)NN=Cc1ccc(Cl)c(F)c1` [Compound 8, (E)-2-(4-chloro-3-fluorobenzylidene)hydrazine-1-carboximidamide], for which the Kd in data set [1] (setting [5]) was 6.37 ± 1.03 µM; in data set [2], 10.6 ± 3.82 µM. The Emax in data set [3] came out at 0%. In addition, in data set [4], the half-maximal effective concentration (EC50) was 11.7 µM. The “Effect on cell death” value in data set [4] is reported as “Yes”.
For `[H]/N=C(\N)NN=Cc1cc(Cl)cc(Cl)c1Cl` [Compound 10, (E)-2-(2,3,5-trichlorobenzylidene)hydrazine-1-carboximidamide], the Kd in data set [1] (setting [5]) came out at 0.391 ± 0.14 µM. In addition, the Emax in data set [3] was 85%. In addition, in data set [4], the EC50 came to 12.5 µM and the “Effect on cell death” value is “Yes”.
Turning to `[H]/N=C(\N)NN=Cc1ccc(Cl)c(Cl)c1` [Compound 11, (E)-2-(3,4-dichlorobenzylidene)hydrazine-1-carboximidamide], the Kd in data set [1] (setting [5]) came to 16.2 ± 2.1 µM. In addition, the Emax in data set [3] came to 34%. Further, in data set [4], the EC50 came to 12.7 µM and the “Effect on cell death” value was “Yes”.
In the same order, the values of `[H]/N=C(\N)NN=Cc1ccc(Cl)c(F)c1Cl` [Compound 13, (E)-2-(2,4-dichloro-3-fluorobenzylidene)hydrazine-1-carboximidamide] are 4.62 ± 0.59 µM, 73%, 15.5 µM and “Yes”.
On the same counts, the results for `[H]/N=C(\N)NN=Cc1ccc(F)c(Cl)c1Cl` [Compound 14, (E)-2-(2,3-dichloro-4-fluorobenzylidene)hydrazine-1-carboximidamide] are 5.45 ± 1.48 µM, 100%, 18.4 µM and “Yes”.
With `[H]/N=C(\N)NN=Cc1cccc(Cl)c1Cl` [Compound 16, (E)-2-(2,3-dichlorobenzylidene)hydrazine-1-carboximidamide], the Kd in data set [1] (setting [5]) stood at 1.05 ± 0.013 µM; in data set [1] (SPR, FIG. 1, read-out: KD for PPP1R15A-PP1) it was 1 µM. Further, in data set [3], the Emax is 92%. In data set [4], the EC50 stood at 20.8 µM. Further, the “Effect on cell death” value in data set [4] is listed as “Yes”.
With `[H]/N=C(\N)NN=Cc1cc(F)ccc1Cl` [Compound 20, (E)-2-(2-chloro-5-fluorobenzylidene)hydrazine-1-carboximidamide], the Kd in data set [1] (setting [5]) was determined as 5.67 ± 0.72 µM. Also, the Emax in data set [3] was 88%. Moreover, in data set [4], the EC50 amounted to 37.8 µM and the “Effect on cell death” value is listed as “Yes”.
For the compound `[H]/N=C(\N)NN=Cc1cccnc1Cl` [Compound 21, (E)-2-((2-chloropyridin-3-yl)methylene)hydrazine-1-carboximidamide], the Kd in data set [1] (setting [5]) turned out to be 0.832 µM. Besides, the Emax in data set [3] worked out at 41%. In addition, the “Effect on cell death” value in data set [4] is given as “No”.
Turning to `[H]/N=C(\N)NN=Cc1ccc(Cl)nc1Cl` [Compound 22, (E)-2-((2,6-dichloropyridin-3-yl)methylene)hydrazine-1-carboximidamide], in data set [1] (setting [5]), the Kd is 7.62 µM. The Emax in data set [3] is 48%. Further, the “Effect on cell death” value in data set [4] is “No”.
In the same order, the values of `[H]/N=C(\N)NN=Cc1cccc(F)c1` [Compound 23, (E)-2-(3-fluorobenzylidene)hydrazine-1-carboximidamide] are 1.42 µM, 53% and “No”.
On the same counts, the results for `[H]/N=C(\N)NN=Cc1cc(Cl)ccc1Cl` [Compound 26, (E)-2-(2,5-dichlorobenzylidene)hydrazine-1-carboximidamide] are 23.1 ± 0.9 µM, 57% and “No”.
In the same order, the values of `[H]/N=C(\N)NN=Cc1cc(F)cc(F)c1Cl` [Compound 29, (E)-2-(2-chloro-3,5-difluorobenzylidene)hydrazine-1-carboximidamide] are 7.87 ± 1.48 µM, 62% and “No”.
Take `[H]/N=C(\N)NN=Cc1cc(Cl)cc(Cl)c1` [Compound 34, (E)-2-(3,5-dichlorobenzylidene)hydrazine-1-carboximidamide]: the Kd in data set [1] (setting [5]) was found to be 17.2 ± 1.9 µM. The Emax in data set [3] came out at 57%. In data set [4], the “Effect on cell death” value is “No”.

The term Kd denotes the concentration at which binding is half-saturated. Broadly, the EC50 is the concentration giving half of the maximal effect.

The record behind these values is patent US11154519B2, “Inhibitors and their uses” (MEDICAL RESEARCH COUNCIL, priority 2015, dated 2021).
